Active and inactive are the calls of the source. No cut-off for these calls is given here.

The subject of assay [1] is Aspergillus niger. As to the kind of experiment: Fungicidal activity against Aspergillus niger after 7 days by serial dilution technique. Type of assay: functional, organism-based.
Assay [2] has as its system Candida albicans. As to the kind of experiment: Fungicidal activity against Candida albicans. Type of assay: functional, organism-based.
Assay [3] has as its system Escherichia coli. As to the kind of experiment: Bactericidal activity against Escherichia coli. It counts as functional, organism-based.
Assay [4] has as its system Bacillus subtilis. As to the kind of experiment: Bactericidal activity against Bacillus subtilis. It counts as functional, organism-based.
Assay [5] has as its system Staphylococcus aureus. The assay is described as follows: Bactericidal activity against Staphylococcus aureus. Type of assay: functional, organism-based.
For assay [6], the system named is Candida albicans. As to the kind of experiment: Antifungal activity against Candida albicans after 2 days by serial dilution technique. It counts as functional.
The subject of assay [7] is Aspergillus niger. As to the kind of experiment: Antifungal activity against Aspergillus niger after 7 days by serial dilution technique. Type of assay: functional.
Assay [8] concerns Escherichia coli. As to the kind of experiment: Antibacterial activity against Escherichia coli after 24 hr by serial dilution technique. It counts as functional.
The test system of assay [9] is Bacillus subtilis. The assay is described as follows: Antibacterial activity against Bacillus subtilis after 24 hr by serial dilution technique. Type of assay: functional.
Assay [10] relates to Staphylococcus aureus. The assay is described as follows: Antibacterial activity against Staphylococcus aureus after 24 hr by serial dilution technique. It counts as functional.

Consider `COC(=O)c1ccccc1N` [METHYL ANTHRANILATE], for which the outcome in the assay on Aspergillus niger [1], with Candida albicans [2], in the assay on Escherichia coli [3], with Bacillus subtilis [4] and in the assay with Staphylococcus aureus [5] was Active. For the same compound, the “-logMIC” value in the assay with Candida albicans [6] came to 1.08; in the assay on Aspergillus niger [7], 1.08; in the assay with Escherichia coli [8] it was 1.69; with Bacillus subtilis [9] it was 1.99; in the assay with Staphylococcus aureus [10] it was 1.08.

For `Nc1ccccc1C(=O)Nc1ccccc1F`, the outcome in the assay on Aspergillus niger [1], with Candida albicans [2], in the assay with Escherichia coli [3], in the assay with Bacillus subtilis [4] and in the assay on Staphylococcus aureus [5] was Active. The “-logMIC” value with Candida albicans [6] is 1.27; with Aspergillus niger [7], 1.27; in the assay on Escherichia coli [8] it was 1.27; in the assay on Bacillus subtilis [9] it was 2.17; in the assay on Staphylococcus aureus [10], 1.27.

Take `Nc1ccccc1C(=O)Nc1ccccc1`: the outcome in the assay on Aspergillus niger [1], in the assay with Candida albicans [2], with Escherichia coli [3], with Bacillus subtilis [4] and with Staphylococcus aureus [5] was Active. Moreover, the “-logMIC” value with Candida albicans [6] turned out to be 1.23; in the assay with Aspergillus niger [7], 1.23; in the assay with Escherichia coli [8], 1.23; in the assay on Bacillus subtilis [9], 2.13; in the assay with Staphylococcus aureus [10], 1.23.

Regarding `Nc1ccccc1C(=O)Nc1ccc2ccccc2c1`, the result in the assay with Aspergillus niger [1], with Candida albicans [2], in the assay with Escherichia coli [3], in the assay with Bacillus subtilis [4] and in the assay with Staphylococcus aureus [5] was Active. The “-logMIC” value worked out at 1.32 in the assay on Candida albicans [6]; 1.62 in the assay with Aspergillus niger [7]; 1.62 in the assay with Escherichia coli [8]; 2.23 with Bacillus subtilis [9]; 1.32 in the assay on Staphylococcus aureus [10].

For the compound `CCCCOC(=O)c1ccccc1N` [BUTYL 2-AMINOBENZOATE], the result in the assay with Aspergillus niger [1], in the assay on Candida albicans [2], with Escherichia coli [3], in the assay with Bacillus subtilis [4] and with Staphylococcus aureus [5] was Active. Besides, the “-logMIC” value in the assay on Candida albicans [6] amounted to 1.19; in the assay on Aspergillus niger [7], 1.3; with Escherichia coli [8] it was 1.79; with Bacillus subtilis [9] it was 2.09; in the assay with Staphylococcus aureus [10] it was 1.2.

For the compound `Cc1cccc(NC(=O)c2ccccc2N)c1`, the result in the assay on Aspergillus niger [1], with Candida albicans [2], with Escherichia coli [3], in the assay on Bacillus subtilis [4] and with Staphylococcus aureus [5] was Active. The “-logMIC” value in the assay on Candida albicans [6] is 1.26; in the assay on Aspergillus niger [7], 1.26; in the assay on Escherichia coli [8], 1.26; in the assay with Bacillus subtilis [9], 2.16; in the assay on Staphylococcus aureus [10], 1.26.

In the case of `Nc1ccccc1C(=O)N(c1ccccc1)c1ccccc1`, the outcome in the assay on Aspergillus niger [1], in the assay with Candida albicans [2], in the assay on Escherichia coli [3], in the assay with Bacillus subtilis [4] and with Staphylococcus aureus [5] was Active. In addition, the “-logMIC” value amounted to 1.36 with Candida albicans [6]; 1.66 with Aspergillus niger [7]; 1.66 in the assay on Escherichia coli [8]; 2.27 in the assay with Bacillus subtilis [9]; 1.36 in the assay on Staphylococcus aureus [10].

`CCCCN(CCCC)C(=O)c1ccccc1N`: the result with Aspergillus niger [1], in the assay with Candida albicans [2], in the assay with Escherichia coli [3], in the assay with Bacillus subtilis [4] and in the assay with Staphylococcus aureus [5] was Active. The “-logMIC” value in the assay on Candida albicans [6] is listed as 1.3; in the assay on Aspergillus niger [7], 1.6; in the assay with Escherichia coli [8] it was 1.6; with Bacillus subtilis [9] it was 2.2; with Staphylococcus aureus [10], 1.3.

`COc1ccc(NC(=O)c2ccccc2N)cc1`: the outcome in the assay on Aspergillus niger [1], in the assay on Candida albicans [2], in the assay with Escherichia coli [3], with Bacillus subtilis [4] and with Staphylococcus aureus [5] was Active. The “-logMIC” value is reported as 1.29 in the assay on Candida albicans [6]; 1.29 in the assay on Aspergillus niger [7]; 1.29 with Escherichia coli [8]; 2.19 with Bacillus subtilis [9]; 1.29 in the assay on Staphylococcus aureus [10].

As to `COc1ccccc1NC(=O)c1ccccc1N`, the result in the assay on Aspergillus niger [1], in the assay on Candida albicans [2], with Escherichia coli [3], in the assay on Bacillus subtilis [4] and in the assay with Staphylococcus aureus [5] was Active. Further, the “-logMIC” value in the assay with Candida albicans [6] is 1.29; with Aspergillus niger [7], 1.29; in the assay with Escherichia coli [8], 1.2; in the assay on Bacillus subtilis [9] it was 1.59; with Staphylococcus aureus [10], 1.29.

As to `Nc1ccccc1C(=O)Nc1cccc(Cl)c1`, the result with Aspergillus niger [1], with Candida albicans [2], in the assay with Escherichia coli [3], in the assay with Bacillus subtilis [4] and in the assay with Staphylococcus aureus [5] was Active. Further, the “-logMIC” value with Candida albicans [6] is given as 1.3; in the assay with Aspergillus niger [7], 1.3; with Escherichia coli [8], 1.6; in the assay on Bacillus subtilis [9] it was 2.2; with Staphylococcus aureus [10], 1.3.

Take `Nc1ccccc1C(=O)Oc1cccc2cccnc12`: the result in the assay with Aspergillus niger [1], in the assay with Candida albicans [2], in the assay on Escherichia coli [3], in the assay on Bacillus subtilis [4] and with Staphylococcus aureus [5] was Active. Moreover, the “-logMIC” value with Candida albicans [6] was 1.63; in the assay with Aspergillus niger [7], 1.63; in the assay with Escherichia coli [8], 1.8; with Bacillus subtilis [9], 1.93; in the assay with Staphylococcus aureus [10] it was 1.93.

In the case of `CCN(CC)C(=O)c1ccccc1N`, the result in the assay on Aspergillus niger [1], with Candida albicans [2], in the assay with Escherichia coli [3], in the assay on Bacillus subtilis [4] and in the assay on Staphylococcus aureus [5] was Active. In addition, the “-logMIC” value in the assay with Candida albicans [6] amounted to 1.19; with Aspergillus niger [7], 1.49; in the assay on Escherichia coli [8], 1.19; in the assay on Bacillus subtilis [9] it was 2.09; with Staphylococcus aureus [10] it was 1.19.

On to `CCCCCCOC(=O)c1ccccc1N` [HEXYL 2-AMINOBENZOATE], for which the outcome in the assay with Aspergillus niger [1], with Candida albicans [2], in the assay on Escherichia coli [3], in the assay with Bacillus subtilis [4] and in the assay with Staphylococcus aureus [5] was Active. Moreover, the “-logMIC” value in the assay with Candida albicans [6] is given as 1.25; in the assay on Aspergillus niger [7], 1.85; in the assay with Escherichia coli [8] it was 1.85; with Bacillus subtilis [9], 2.15; in the assay on Staphylococcus aureus [10] it was 1.25.

Take `Cc1ccc(NC(=O)c2ccccc2N)cc1`: the result in the assay on Aspergillus niger [1], in the assay with Candida albicans [2], with Escherichia coli [3], in the assay on Bacillus subtilis [4] and in the assay with Staphylococcus aureus [5] was Active. The “-logMIC” value in the assay on Candida albicans [6] is on record as 1.26; in the assay with Aspergillus niger [7] it was 1.26; in the assay with Escherichia coli [8], 1.56; in the assay with Bacillus subtilis [9], 2.16; in the assay on Staphylococcus aureus [10] it was 1.26.

`CC(C)CCOC(=O)c1ccccc1N` [ISOPENTYL 2-AMINOBENZOATE]: the outcome in the assay with Aspergillus niger [1], with Candida albicans [2], with Escherichia coli [3], in the assay with Bacillus subtilis [4] and in the assay on Staphylococcus aureus [5] was Active. Moreover, the “-logMIC” value is 1.22 in the assay on Candida albicans [6]; 1.22 in the assay on Aspergillus niger [7]; 1.82 in the assay with Escherichia coli [8]; 2.12 with Bacillus subtilis [9]; 1.22 in the assay on Staphylococcus aureus [10].

In the case of `CCCNC(=O)c1ccccc1N`, the result in the assay with Aspergillus niger [1], in the assay on Candida albicans [2], with Escherichia coli [3], in the assay on Bacillus subtilis [4] and with Staphylococcus aureus [5] was Active. Also, the “-logMIC” value was found to be 1.12 in the assay with Candida albicans [6]; 1.15 in the assay with Aspergillus niger [7]; 1.46 in the assay on Escherichia coli [8]; 2.06 in the assay with Bacillus subtilis [9]; 1.15 in the assay with Staphylococcus aureus [10].

Regarding `Nc1ccccc1C(=O)Nc1ccc(F)c(Cl)c1`, the outcome in the assay on Aspergillus niger [1], with Candida albicans [2], with Escherichia coli [3], in the assay with Bacillus subtilis [4] and in the assay on Staphylococcus aureus [5] was Active. Further, the “-logMIC” value in the assay on Candida albicans [6] was 1.33; in the assay on Aspergillus niger [7] it was 1.02; with Escherichia coli [8], 1.33; with Bacillus subtilis [9], 2.23; in the assay with Staphylococcus aureus [10], 1.33.

Turning to `Cc1ccccc1NC(=O)c1ccccc1N`, the result in the assay on Aspergillus niger [1], in the assay on Candida albicans [2], with Escherichia coli [3], in the assay with Bacillus subtilis [4] and with Staphylococcus aureus [5] was Active. Besides, the “-logMIC” value is 1.56 with Candida albicans [6]; 1.56 in the assay with Aspergillus niger [7]; 1.26 in the assay on Escherichia coli [8]; 1.86 in the assay with Bacillus subtilis [9]; 1.26 with Staphylococcus aureus [10].

`CCOC(=O)c1ccccc1N` [ETHYL ANTHRANILATE]: the result in the assay with Aspergillus niger [1], in the assay with Candida albicans [2], in the assay with Escherichia coli [3], in the assay on Bacillus subtilis [4] and in the assay on Staphylococcus aureus [5] was Active. Further, the “-logMIC” value worked out at 1.12 in the assay with Candida albicans [6]; 1.72 in the assay on Aspergillus niger [7]; 1.72 in the assay with Escherichia coli [8]; 1.91 in the assay with Bacillus subtilis [9]; 1.12 in the assay with Staphylococcus aureus [10].

For the origin of these results see ChEMBL document CHEMBL3046853, “Synthesis, antimicrobial evaluation, ot-QSAR and mt-QSAR studies of 2-amino benzoic acid derivatives” (2012).
